Here are results for 31 compounds from US9079901B2, “Fused heterocyclic compounds as ion channel modulators” (Gilead Sciences, Inc., priority 2010, dated 2015).

This test deals with wild-type human cardiac sodium channel, hNav1.5 (late sodium current) in HEK293 cells (Homo sapiens, UniProt Q14524). Nature of the test: Late INa screening assay (automated whole-cell patch clamp, PatchXpress). Type of test: cell-based. The settings on record: HEK293, compound at 1 μM; late INa generated with 10 μM Tefluthrin (or 50 nM ATX II); HEK293 hNav1.5; read-out: Late INa 1 μM (percent block of late INa). The essentials: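 Percent block was derived from mean current 225–250 ms into a 250 ms depolarisation to −20 mV (holding −120 mV, every 10 s), normalised to the current left in Na-free solution. Whole-cell recordings came from HEK293 cells stably expressing α-subunit-only hNav1.5, at 24–27 °C. Late current was enhanced with 10 μM tefluthrin or 50 nM ATX II, then compound (typically 10 μM) was added three times over 7–8 min.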
Chain of wild-type human cardiac sodium channel, hNav1.5 (late sodium current) in HEK293 cells (Q14524 whole entry): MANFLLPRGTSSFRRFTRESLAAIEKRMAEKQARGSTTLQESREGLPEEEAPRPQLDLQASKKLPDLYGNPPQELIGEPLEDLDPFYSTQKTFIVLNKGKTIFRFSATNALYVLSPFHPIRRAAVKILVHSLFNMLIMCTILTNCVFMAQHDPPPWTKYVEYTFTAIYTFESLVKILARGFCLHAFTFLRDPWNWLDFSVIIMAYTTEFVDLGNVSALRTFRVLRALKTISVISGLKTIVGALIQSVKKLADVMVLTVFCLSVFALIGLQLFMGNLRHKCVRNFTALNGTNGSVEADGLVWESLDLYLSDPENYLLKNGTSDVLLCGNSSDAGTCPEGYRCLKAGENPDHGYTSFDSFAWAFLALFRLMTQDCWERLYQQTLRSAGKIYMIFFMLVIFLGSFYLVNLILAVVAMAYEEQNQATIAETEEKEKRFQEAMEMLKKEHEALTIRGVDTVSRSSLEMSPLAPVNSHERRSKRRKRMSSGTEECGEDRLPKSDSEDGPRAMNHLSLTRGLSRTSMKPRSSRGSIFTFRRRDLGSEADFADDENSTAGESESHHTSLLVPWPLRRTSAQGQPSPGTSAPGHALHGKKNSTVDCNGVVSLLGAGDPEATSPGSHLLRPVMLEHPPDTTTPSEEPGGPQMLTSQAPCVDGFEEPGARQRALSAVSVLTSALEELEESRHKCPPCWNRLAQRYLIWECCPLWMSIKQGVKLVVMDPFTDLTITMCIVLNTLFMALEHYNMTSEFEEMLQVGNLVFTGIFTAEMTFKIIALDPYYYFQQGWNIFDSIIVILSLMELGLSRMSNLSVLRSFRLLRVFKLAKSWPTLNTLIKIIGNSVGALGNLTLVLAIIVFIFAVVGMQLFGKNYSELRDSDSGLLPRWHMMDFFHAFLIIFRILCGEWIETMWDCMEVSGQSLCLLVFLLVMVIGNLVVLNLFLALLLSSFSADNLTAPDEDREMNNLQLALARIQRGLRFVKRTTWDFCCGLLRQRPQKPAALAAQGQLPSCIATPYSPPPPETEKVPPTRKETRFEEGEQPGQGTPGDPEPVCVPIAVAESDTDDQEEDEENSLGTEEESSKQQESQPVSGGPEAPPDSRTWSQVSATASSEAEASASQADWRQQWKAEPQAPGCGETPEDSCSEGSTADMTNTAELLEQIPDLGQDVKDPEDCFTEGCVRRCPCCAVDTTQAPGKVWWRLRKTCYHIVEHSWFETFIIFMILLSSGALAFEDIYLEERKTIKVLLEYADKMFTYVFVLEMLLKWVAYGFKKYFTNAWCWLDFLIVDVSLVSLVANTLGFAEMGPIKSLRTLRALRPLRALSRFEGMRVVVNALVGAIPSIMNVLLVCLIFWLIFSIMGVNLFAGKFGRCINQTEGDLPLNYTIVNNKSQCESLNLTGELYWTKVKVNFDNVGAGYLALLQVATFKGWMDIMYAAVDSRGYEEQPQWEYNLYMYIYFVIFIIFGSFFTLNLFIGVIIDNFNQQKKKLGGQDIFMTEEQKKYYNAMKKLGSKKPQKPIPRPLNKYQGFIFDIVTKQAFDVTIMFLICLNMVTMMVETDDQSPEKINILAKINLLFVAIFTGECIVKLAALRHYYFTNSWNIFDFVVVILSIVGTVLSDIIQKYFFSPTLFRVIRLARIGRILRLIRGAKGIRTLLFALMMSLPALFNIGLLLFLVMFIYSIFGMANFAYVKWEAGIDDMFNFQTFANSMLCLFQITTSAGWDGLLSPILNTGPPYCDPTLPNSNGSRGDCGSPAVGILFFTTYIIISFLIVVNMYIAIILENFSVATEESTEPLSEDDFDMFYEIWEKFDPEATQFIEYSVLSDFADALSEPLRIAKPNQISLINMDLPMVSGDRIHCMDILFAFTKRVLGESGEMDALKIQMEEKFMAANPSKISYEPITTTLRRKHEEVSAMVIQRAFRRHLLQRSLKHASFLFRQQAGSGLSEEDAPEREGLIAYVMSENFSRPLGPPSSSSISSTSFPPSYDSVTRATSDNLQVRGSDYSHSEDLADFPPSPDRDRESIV

Structures are written as SMILES.

Turning to `O=c1n(CCOc2cnc(Cl)nc2)nc2ccc(-c3ccc(OC(F)(F)F)cc3)cn12` [compound 139, 2-(2-(2-chloropyrimidin-5-yloxy)ethyl)-6-(4-(trifluoromethoxy)phenyl)-[1,2,4]triazolo[4,3-a]pyridin-3(2H)-one], the inhibition at 1 µM turned out to be 20.2%.

Turning to `O=c1n(CCOc2ncc(F)c(N3CC(F)(F)C3)n2)nc2ccc(-c3ccc(OC(F)(F)F)cc3)cn12` [compound 133, 2-(2-(4-(3,3-difluoroazetidin-1-yl)-5-fluoropyrimidin-2-yloxy)ethyl)-6-(4-(trifluoromethoxy)phenyl)-[1,2,4]triazolo[4,3-a]pyridin-3(2H)-one], the inhibition at 1 µM was 20.5%.

With `Cc1coc(Cn2nc3ccc(-c4ccc(OC(F)(F)F)cc4)cn3c2=O)n1` [compound 191, 2-((4-methyloxazol-2-yl)methyl)-6-(4-(trifluoromethoxy)phenyl)-[1,2,4]triazolo[4,3-a]pyridin-3(2H)-one], the inhibition at 1 µM is 28.9%.

For the compound `O=c1n(CCOc2ccc(Cl)cc2)nc2ccc(-c3ccc(OC(F)(F)F)cc3)cn12` [compound 40, 2-(2-(4-chlorophenoxy)ethyl)-6-(4-(trifluoromethoxy)phenyl)-[1,2,4]triazolo[4,3-a]pyridin-3(2H)-one], the inhibition at 1 µM is 34.3%.

Turning to `COc1ccccc1-c1nc(Cn2nc3ccc(-c4ccc(OC(F)(F)F)cc4)cn3c2=O)no1` [compound 11, 2-((5-(2-methoxyphenyl)-1,2,4-oxadiazol-3-yl)methyl)-6-(4-(trifluoromethoxy)phenyl)-[1,2,4]triazolo[4,3-a]pyridin-3(2H)-one], the inhibition at 1 µM stood at 22%.

With `CCOc1ccccc1OCC(O)Cn1nc2ccc(-c3ccc(OC(F)(F)F)cc3)cn2c1=O` (stereo not shown) [compound 99, 2-(3-(2-ethoxyphenoxy)-2-hydroxypropyl)-6-(4-(trifluoromethoxy)phenyl)-[1,2,4]triazolo[4,3-a]pyridin-3(2H)-one], the inhibition at 1 µM is 36.5%.

Turning to `O=c1[nH]nc2ccc(-c3ccc(C(F)(F)F)cc3)cn12` [compound 171, 6-(4-(trifluoromethyl)phenyl)-[1,2,4]triazolo[4,3-a]pyridin-3(2H)-one], the inhibition at 1 µM came out at 19.6%.

For the compound `CSc1ccnc(OCCn2nc3ccc(-c4ccc(OC(F)(F)F)cc4)cn3c2=O)n1` [compound 159, 2-(2-(4-(methylthio)pyrimidin-2-yloxy)ethyl)-6-(4-(trifluoromethoxy)phenyl)-[1,2,4]triazolo[4,3-a]pyridin-3(2H)-one], the inhibition at 1 µM worked out at 49.6%.

Regarding `Cc1nccnc1CCn1nc2ccc(-c3ccc(OC(F)(F)F)cc3)cn2c1=O` [compound 117, 2-(2-(3-methylpyrazin-2-yl)ethyl)-6-(4-(trifluoromethoxy)phenyl)-[1,2,4]triazolo[4,3-a]pyridin-3(2H)-one], the inhibition at 1 µM was found to be 18.2%.

For the compound `N#Cc1ccccc1OCCCn1nc2ccc(-c3ccc(OC(F)(F)F)cc3)cn2c1=O` [compound 70, 2-(3-(3-oxo-6-(4-(trifluoromethoxy)phenyl)-[1,2,4]triazolo[4,3-a]pyridin-2(3H)-yl)propoxy)benzonitrile], the inhibition at 1 µM was 29.9%.

With `O=c1n(CCc2ccc(-c3cccnc3)cn2)nc2ccc(-c3ccc(OC(F)(F)F)cc3)cn12` [compound 74, 2-(2-(3,3′-bipyridin-6-yl)ethyl)-6-(4-(trifluoromethoxy)phenyl)-[1,2,4]triazolo[4,3-a]pyridin-3(2H)-one], the inhibition at 1 µM turned out to be 11.1%.

In the case of `COCc1noc(Cn2nc3ccc(-c4ccc(OC(F)(F)F)cc4)cn3c2=O)n1` [compound 153, 2-((3-(methoxymethyl)-1,2,4-oxadiazol-5-yl)methyl)-6-(4-(trifluoromethoxy)phenyl)-[1,2,4]triazolo[4,3-a]pyridin-3(2H)-one], the inhibition at 1 µM worked out at 23.2%.

As to `CCc1noc(Cn2nc3ccc(-c4ccc(C(F)(F)F)cc4)cn3c2=O)n1` [compound 167, 2-((3-ethyl-1,2,4-oxadiazol-5-yl)methyl)-6-(4-(trifluoromethyl)phenyl)-[1,2,4]triazolo[4,3-a]pyridin-3(2H)-one], the inhibition at 1 µM is 26.2%.

Regarding `CC(Cn1nc2ccc(-c3ccc(OC(F)(F)F)cc3)cn2c1=O)c1ccccn1` (stereo not shown) [compound 102, 2-(2-(pyridin-2-yl)propyl)-6-(4-(trifluoromethoxy)phenyl)-[1,2,4]triazolo[4,3-a]pyridin-3(2H)-one], the inhibition at 1 µM was 36.2%.

Turning to `CCc1noc(Cn2nc3ccc(-c4ccc(OC(F)(F)F)cc4)cn3c2=O)n1` [compound 166, 2-((3-ethyl-1,2,4-oxadiazol-5-yl)methyl)-6-(4-(trifluoromethoxy)phenyl)-[1,2,4]triazolo[4,3-a]pyridin-3(2H)-one], the inhibition at 1 µM worked out at 24.4%.

For the compound `COc1cc(F)ccc1OCC(Cn1nc2ccc(-c3ccc(OC(F)(F)F)cc3)cn2c1=O)OC` (stereo not shown) [compound 104, 2-(3-(4-fluoro-2-methoxyphenoxy)-2-methoxypropyl)-6-(4-(trifluoromethoxy)phenyl)-[1,2,4]triazolo[4,3-a]pyridin-3(2H)-one], the inhibition at 1 µM is 41.5%.

Consider `Cc1nc(COCCn2nc3ccc(-c4ccc(OC(F)(F)F)cc4)cn3c2=O)no1` [compound 86, 2-(2-((5-methyl-1,2,4-oxadiazol-3-yl)methoxy)ethyl)-6-(4-(trifluoromethoxy)phenyl)-[1,2,4]triazolo[4,3-a]pyridin-3(2H)-one], for which the inhibition at 1 µM is 17.5%.

As for `O=c1n(CCN2CC[C@@H](Oc3ccc(F)cc3)C2)nc2ccc(-c3ccc(OC(F)(F)F)cc3)cn12` [compound 186, (R)-2-(2-(3-(4-fluorophenoxy)pyrrolidin-1-yl)ethyl)-6-(4-(trifluoromethoxy)phenyl)-[1,2,4]triazolo[4,3-a]pyridin-3(2H)-one], the inhibition at 1 µM is 37.3%.

Take `O=c1n(CCc2ncccc2Br)nc2ccc(-c3ccc(OC(F)(F)F)cc3)cn12` [compound 56, 2-(2-(3-bromopyridin-2-yl)ethyl)-6-(4-(trifluoromethoxy)phenyl)-[1,2,4]triazolo[4,3-a]pyridin-3(2H)-one]: the inhibition at 1 µM came out at 39.8%.

As for `COc1ccccc1OCCn1nc2ccc(-c3ccc(OC(F)(F)F)cc3)cn2c1=O` [compound 69, 2-(2-(2-methoxyphenoxy)ethyl)-6-(4-(trifluoromethoxy)phenyl)-[1,2,4]triazolo[4,3-a]pyridin-3(2H)-one], the inhibition at 1 µM worked out at 32.5%.

On to `CC(C)(C)c1cnc(Cn2nc3ccc(-c4ccc(C(F)(F)F)cc4)cn3c2=O)o1` [compound 184, 2-((5-tert-butyloxazol-2-yl)methyl)-6-(4-(trifluoromethyl)phenyl)-[1,2,4]triazolo[4,3-a]pyridin-3(2H)-one], for which the inhibition at 1 µM is 18.9%.

Regarding `Cc1noc(Cn2nc3ccc(-c4cc(F)c(Oc5ccccc5)c(F)c4)cn3c2=O)n1` [compound 127, 6-(3,5-difluoro-4-phenoxyphenyl)-2-((3-methyl-1,2,4-oxadiazol-5-yl)methyl)-[1,2,4]triazolo[4,3-a]pyridin-3(2H)-one], the inhibition at 1 µM amounted to 21.5%.

Take `CCOc1ccnc(OC2COCC2n2nc3ccc(-c4ccc(OC(F)(F)F)cc4)cn3c2=O)n1` (stereo not shown) [compound 125, 2-(4-(4-ethoxypyrimidin-2-yloxy)tetrahydrofuran-3-yl)-6-(4-(trifluoromethoxy)phenyl)-[1,2,4]triazolo[4,3-a]pyridin-3(2H)-one]: the inhibition at 1 µM came to 14.1%.

As to `O=c1n(CCOc2nccc(Oc3ccc(Cl)cc3)n2)nc2ccc(-c3ccc(OC(F)(F)F)cc3)cn12` [compound 132, 2-(2-(4-(4-chlorophenoxy)pyrimidin-2-yloxy)ethyl)-6-(4-(trifluoromethoxy)phenyl)-[1,2,4]triazolo[4,3-a]pyridin-3(2H)-one], the inhibition at 1 µM is 11%.

On to `O=c1n(CCn2cc(Cl)cn2)nc2ccc(-c3ccc(OC(F)(F)F)cc3)cn12` [compound 41, 2-(2-(4-chloro-1H-pyrazol-1-yl)ethyl)-6-(4-(trifluoromethoxy)phenyl)-[1,2,4]triazolo[4,3-a]pyridin-3(2H)-one], for which the inhibition at 1 µM was 12.2%.

For `Cc1noc(Cn2nc3ccc(-c4ccc(C(=O)c5ccccc5)cc4)cn3c2=O)n1` [compound 131, 6-(4-benzoylphenyl)-2-((3-methyl-1,2,4-oxadiazol-5-yl)methyl)-[1,2,4]triazolo[4,3-a]pyridin-3(2H)-one], the inhibition at 1 µM was 34.7%.

Regarding `O=c1n(Cc2nc(C3CC3)co2)nc2ccc(-c3ccc(C(F)(F)F)cc3)cn12` [compound 194, 2-((4-cyclopropyloxazol-2-yl)methyl)-6-(4-(trifluoromethyl)phenyl)-[1,2,4]triazolo[4,3-a]pyridin-3(2H)-one], the inhibition at 1 µM turned out to be 21.6%.

Turning to `O=c1n(CCOc2cccc(Cl)c2)nc2ccc(-c3ccc(OC(F)(F)F)cc3)cn12` [compound 54, 2-(2-(3-chlorophenoxy)ethyl)-6-(4-(trifluoromethoxy)phenyl)-[1,2,4]triazolo[4,3-a]pyridin-3(2H)-one], the inhibition at 1 µM is 20.2%.

On to `O=c1n(CCN2CCC(Oc3ccccc3)C2)nc2ccc(-c3ccc(OC(F)(F)F)cc3)cn12` (stereo not shown) [compound 39, 2-(2-(3-phenoxypyrrolidin-1-yl)ethyl)-6-(4-(trifluoromethoxy)phenyl)-[1,2,4]triazolo[4,3-a]pyridin-3(2H)-one], for which the inhibition at 1 µM was 45.4%.

Turning to `O=c1n(Cc2ncon2)nc2ccc(-c3ccc(OC(F)(F)F)cc3)cn12` [compound 27, 2-((1,2,4-oxadiazol-3-yl)methyl)-6-(4-(trifluoromethoxy)phenyl)-[1,2,4]triazolo[4,3-a]pyridin-3(2H)-one], the inhibition at 1 µM was found to be 11.2%.

Turning to `Cc1oc(-c2ccccc2)nc1Cn1nc2ccc(-c3ccc(OC(F)(F)F)cc3)cn2c1=O` [compound 21, 2-((5-methyl-2-phenyloxazol-4-yl)methyl)-6-(4-(trifluoromethoxy)phenyl)-[1,2,4]triazolo[4,3-a]pyridin-3(2H)-one], the inhibition at 1 µM amounted to 11%.
